Measurements as given in PMC5267425, “Identification of small molecule modulators of HIV-1 Tat and Rev protein accumulation” (Retrovirology, 2017).
Values joined by “and” are separate entries in the source; they are usually repeats but may differ in a detail not shown here. Identical values can stand only once.

Tested on: alternative splicing of host transcripts in HeLa rtTA HIV∆Mls cells
Test: RT-PCR of host alternative splicing events (PSI), capillary electrophoresis
Assay type: cell-based
Parameters: PSI ZNF827_1 / PSI RAN_1 / PSI SEC24B_1 / PSI SMN2_1 / PSI TRIM37_1 / PSI RPS24_1 / PSI PDCL_1 / PSI SMN2_2 / PSI SETD5_1 / PSI RAI14_1 / PSI TPM1_1 / PSI SPAG9_1 / PSI POLDIP3_1 / PSI SRPK2_1 / PSI POMT1_1: concentration or dose not given beside the values
Settings: for DPSI TPM1_1: P Value 0.330
Experimental: To assess the effect of compounds on expression/alternative splicing of cellular RNA, two approaches were used. For both, total RNA was prepared from DMSO or compound-treated cells. In the first assay, samples were assayed by medium throughput RT-PCR to determine the inclusion levels of alternatively spliced exons and splice sites located in 73 selected events. 73 primer sets containing a fluorescently (5-FAM) labeled primer for each, were used in RT-PCR. PCR products generated were denatured in formamide and quantified using ABI Prism capillary sequencer (Life Technologies). The fragment analysis was performed on the PeakScanner software (Life Technologies) in batch mode and automated using custom scripts written in Python. The inclusion level of each exon was calculated as the amount of transcripts carrying the alternative exon relative to the total amount of all transcripts detected in the PCR reaction and results are summarized for compound-treatment in comparison to DMSO treatment. In the second assay, extracted RNA was processed using the Illumina TruSeq RNA Sample Preparation Kit (Illumina) according to the manufacturer’s instructions. The cDNA library generated was validated (passed quality control on a Bioanalyzer 1000 DNA chip (Agilent)), normalized and pooled for cluster generation. cDNA libraries were sequenced on the Illumina HiSeq 2500 (paired-end, 125 bp) with version 4 chemistry following manufacturer’s protocols. The full human genome and transcriptomic sequences were downloaded from the UCSC Genome Browser (genome.ucsc.edu) database and Ensembl (www.ensembl.org), respectively, as described by Irimia et al.. Exon annotations and genomic coordinates for alternative splicing (AS) analysis were derived from tables downloaded from the UCSC Genome Browser database. To determine gene expression (GE) or alternative splicing (AS) changes in an unbiased way, the effective number of unique mappable positions in each transcript (i.e. the effective length) was determined by aligning sequences with unique transcriptomic alignment to the human genome using Bowtie. Reads with one unique genomic alignment were then aligned against the canonical transcriptome and, for each transcript, the number of reads with one unique transcriptomic alignment were counted. The expression level of genes was quantified as corrected ‘reads per kilobase of exon model per million mapped reads’ (cRPKM), a widely used metric to estimate gene expression levels. The expression cutoff was 0.5 cRPKM, corresponding to the transcript of the gene being present if there were ≥10 reads that mapped uniquely to a single genomic locus. Approximately 19,847 Ensembl annotated protein-coding genes were compared to create a gene list of differentially expressed genes. Genes were considered differentially expressed if fold changes in cRPKM was ≥2 in compound-treated versus DMSO-treated samples.

[1] = of 70 AS events, 5193892 vs DMSO, HeLa rtTA-HIV-DMls cells

SMILES: COc1ccc(C=NNC(=O)c2ccccc2O)cc1O [Compound 892, 2-hydroxy-N′-(3-hydroxy-4-methoxybenzylidene)benzohydrazide]
- PSI NUMB_2 (chr14:72815742-72815885, HeLa rtTA-HIV-DMls cells, replicates 25, 26, 27): 26.00
- DPSI NUMB_2 (chr14:72815742-72815885, mean PSI 5193892 minus DMSO, n=3, P Value 0.004): 8.67%
- PSI NUMB_2 (chr14:72820542-72820835, HeLa rtTA-HIV-DMls cells, replicates 25, 26, 27): 82.00 and 96.00 and 95.00
- DPSI NUMB_2 (chr14:72820542-72820835, mean PSI 5193892 minus DMSO, n=3, P Value 0.525): 4.67%
- PSI MARK3_1 (chr14:103034592-103034618, HeLa rtTA-HIV-DMls cells, replicates 25, 26, 27): 20.00 and 13.00 and 16.00
- DPSI MARK3_1 (chr14:103034592-103034618, mean PSI 5193892 minus DMSO, n=3, P Value 0.734): 1.00%
- PSI MARK3_1 (chr14:103036246-103036290, HeLa rtTA-HIV-DMls cells, replicates 25, 26, 27): 11.00 (2×) and 9.00
- PSI TPM1_1 (chr15:61140450-61140525, HeLa rtTA-HIV-DMls cells, replicates 25, 26, 27): 84.00 and 73.00 and 67.00
- DPSI TPM1_1 (chr15:61140450-61140525, mean PSI 5193892 minus DMSO, n=3): -6.67%
- PSI TPM1_1 (chr15:61140965-61141040, HeLa rtTA-HIV-DMls cells, replicates 25, 26, 27): 16.00 and 27.00 and 33.00
- DPSI TPM1_1 (chr15:61140965-61141040, mean PSI 5193892 minus DMSO, n=3): 6.67%
- PSI CA12_1 (chr15:61406400-61406485, HeLa rtTA-HIV-DMls cells, replicates 25, 26, 27): 96.00 and 100.00 and 95.00
- DPSI CA12_1 (chr15:61406400-61406485, mean PSI 5193892 minus DMSO, n=3, P Value 0.851): 0.33%
- PSI CA12_1 (chr15:61407349-61407382, HeLa rtTA-HIV-DMls cells, replicates 25, 26, 27): 15.00 and 7.00 and 4.00
- PSI MRIP_1 (chr17:17024646-17024708, HeLa rtTA-HIV-DMls cells, replicates 25, 26, 27): 32.00 and 31.00 (2×)
- DPSI MRIP_1 (chr17:17024646-17024708, mean PSI 5193892 minus DMSO, n=3, P Value 0.101): 1.00%
- PSI ATP6V0A1_1 (chr17:37919833-37920004, HeLa rtTA-HIV-DMls cells, replicates 25, 26, 27): 81.00 and 86.00 and 77.00
- DPSI ATP6V0A1_1 (chr17:37919833-37920004, mean PSI 5193892 minus DMSO, n=3, P Value 0.331): 3.33%
- PSI SPAG9_1 (chr17:46408223-46408261, HeLa rtTA-HIV-DMls cells, replicates 25, 26, 27): 25.00 and 17.00 and 16.00
- PSI TRIM37_1 (chr17:54433741-54433857, HeLa rtTA-HIV-DMls cells, replicates 25, 26, 27): 69.00 and 71.00 and 68.00
- DPSI TRIM37_1 (chr17:54433741-54433857, mean PSI 5193892 minus DMSO, n=3, P Value 0.063): -4.33%
- PSI FAM104A_1 (chr17:68720412-68720474, HeLa rtTA-HIV-DMls cells, replicates 25, 26, 27): 15.00 and 20.00 and 18.00
- DPSI FAM104A_1 (chr17:68720412-68720474, mean PSI 5193892 minus DMSO, n=3, P Value 0.523): -2.33%
- PSI EXOC7_1 (chr17:71598005-71598035, HeLa rtTA-HIV-DMls cells, replicates 25, 26, 27): 35.00 and 23.00 and 25.00
- DPSI EXOC7_1 (chr17:71598005-71598035, mean PSI 5193892 minus DMSO, n=3, P Value 0.709): 2.67%
- PSI EXOC7_1 (chr17:71598819-71598911, HeLa rtTA-HIV-DMls cells, replicates 25, 26, 27): 27.00
- DPSI EXOC7_1 (chr17:71598819-71598911, mean PSI 5193892 minus DMSO, n=3, P Value 0.003): 5.67%
- PSI MBD1_1 (chr18:46054554-46054721, HeLa rtTA-HIV-DMls cells, replicates 25, 26, 27): 28.00 and 15.00 and 9.00
- PSI APP_1 (chr21:26291546-26291602, HeLa rtTA-HIV-DMls cells, replicates 25, 26, 27): 30.00 and 32.00 and 34.00
- DPSI APP_1 (chr21:26291546-26291602, mean PSI 5193892 minus DMSO, n=3, P Value 0.279): 1.67%
- PSI APP_1 (chr21:26294201-26294368, HeLa rtTA-HIV-DMls cells, replicates 25, 26, 27): 71.00 and 77.00 and 81.00
- PSI POLDIP3_1 (chr22:41327919-41328006, HeLa rtTA-HIV-DMls cells, replicates 25, 26, 27): 68.00 and 67.00 and 64.00
- DPSI POLDIP3_1 (chr22:41327919-41328006, mean PSI 5193892 minus DMSO, n=3, P Value 0.421): 2.33%
- AS events with DPSI ≤ -10% [1]: 7
- AS events with DPSI ≥ 10% [1]: 2
- AS events with P ≤ 0.05 [1]: 18
